# Source: article PMC7435877 (Molecules, 2020)
# Like-named read-outs stand apart in the source and are kept apart here.
# Experiments:
# LoVo = experiment: In vitro antiproliferative activity, SRB assay, LoVo; type: cell-based, human; conditions: for IC50: 72 h, read-out: Antiproliferative activity IC50, LoVo
# BALB/3T3 = experiment: In vitro antiproliferative activity, SRB assay, normal fibroblasts BALB/3T3; type: cell-based; conditions: normal murine embryonic fibroblast BALB/3T3, 72 h, mean ± SD
# MCF-7 = experiment: In vitro antiproliferative activity, SRB assay, MCF-7; type: cell-based, human; conditions: for IC50: read-out: Antiproliferative activity IC50, MCF-7
# A549 = experiment: In vitro antiproliferative activity, SRB assay, A549; type: cell-based, human; conditions: for IC50: read-out: Antiproliferative activity IC50, A549
# LoVo/DX = experiment: In vitro antiproliferative activity, SRB assay, doxorubicin-resistant LoVo/DX; type: cell-based, human; conditions: for Resistance index (RI): RI = IC50 LoVo/DX / IC50 LoVo; for IC50: 72 h
# [1] = system: A549, MCF-7, LoVo, and LoVo/DX cells; experiment: In vitro antiproliferative activity, SRB assay, summary over the tumor cell lines tested; type: cell-based; conditions: Homo sapiens, read-out: IC50, span over all tumor cell lines tested
# Description: . Detailed information concerning antiproliferation assay can be found in Supplementary Materials. […]
# neutralized with 4M NaOH to pH~10 and extracted four times with EtOAc. The organic layers were combined, washed with brine, dried over Na2SO4, filtered off and evaporated under reduced pressure. The residue was purified using column flash chromatography (silica gel; DCM/MeOH, 20/1 v/v) and next lyophilized from dioxane to give the pure product 3 as a yellow solid with a yield of 73%.
# In vitro antiproliferative activity
# Cell lines and culturing conditions
# Four human cancer cell lines and one murine normal cell line were used to evaluate antiproliferative […]
# adenocarcinoma (MCF-7), human colon adenocarcinoma cell lines sensitive and resistant to doxorubicin (LoVo) and (LoVo/DX) respectively, and normal murine embryonic fibroblast cell line (BALB/3T3). The A549 cell line was purchased from the European Collection of Authenticated Cell Cultures (ECACC, Salisbury, UK). The MCF-7, LoVo and LoVo/DX cell lines was purchased from American Type Culture Collection (ATCC, Manassas, VA, USA). All the cell lines are maintained in the Institute of Immunology and Experimental Therapy (IIET), Wroclaw, Poland. […]
# [2] = Homo sapiens, LoVo/DX, read-out: Antiproliferative activity IC50, LoVo/DX, doxorubicin-resistant subline LoVo/DX, 72 h, SRB, mean ± SD
# [3] = read-out: Antiproliferative activity IC50, LoVo/DX, doxorubicin-resistant subline LoVo/DX, SRB, mean ± SD
SMILES,Resistance index (RI) (LoVo/DX),"IC50 (LoVo; Homo sapiens, LoVo) [nM]","IC50 (A549; Homo sapiens, A549, 72 h) [nM]","IC50 (MCF-7; Homo sapiens, MCF7, 72 h) [nM]",IC50 (LoVo/DX; [2]) [nM],further results
"N.N.[Cl][Pt][Cl] [Cisplatin, cisplatin, reference compound]",0.9,–,–,–,–,"IC50 (LoVo; human colon adenocarcinoma LoVo, SRB, mean ± SD): 5460 ± 1410 nM; IC50 (BALB/3T3): 3.97 ± 0.995 µM; IC50 (MCF-7; human breast adenocarcinoma MCF-7, 72 h, SRB, mean ± SD): 5810 ± 2610 nM; IC50 (A549; human lung adenocarcinoma A549, 72 h, SRB, mean ± SD): 4920 ± 1850 nM; IC50 (LoVo/DX; doxorubicin-resistant subline LoVo/DX, SRB, mean ± SD, read-out: Antiproliferative activity IC50, LoVo/DX): 5010 ± 1560 nM"
"CNc1ccc2c(cc1=O)C(NC(C)=O)CCc1cc(OC)c(OC)c(OC)c1-2 (stereo not shown) [Compound 2, 10-N-methylaminocolchicine]",–,1.2 ± 0.2,7.2 ± 1.3,–,–,–
"CNc1ccc2c(cc1=O)[C@@H](N)CCc1cc(OC)c(OC)c(OC)c1-2 [Compound 3, N-deacetyl-10-methylamino-10-demethoxycolchicine]",–,7.4 ± 2.7,8.6 ± 3.9,9.8 ± 4.5,–,–
CCN[C@H]1CCc2cc(OC)c(OC)c(OC)c2-c2ccc(NC)c(=O)cc21 [Compound 4],8.5,7.3 ± 2.5,9.4 ± 3.2,8.7 ± 3.3,62 ± 7.5,–
CCCN[C@H]1CCc2cc(OC)c(OC)c(OC)c2-c2ccc(NC)c(=O)cc21 [Compound 5],3.5,5 ± 0.1,10.5 ± 0.7,10.4 ± 0.6,17.2 ± 6.7,–
CCCCN[C@H]1CCc2cc(OC)c(OC)c(OC)c2-c2ccc(NC)c(=O)cc21 [Compound 6],1.7,7.8 ± 1.3,8.1 ± 2.6,8.7 ± 3.1,13.3 ± 5.8,–
CCCCCCCCCCN[C@H]1CCc2cc(OC)c(OC)c(OC)c2-c2ccc(NC)c(=O)cc21 [Compound 7],2.1,46.6 ± 15.5,88.4 ± 3.2,75.2 ± 10.8,99.5 ± 35.5,–
CNc1ccc2c(cc1=O)[C@@H](NCC(C)C)CCc1cc(OC)c(OC)c(OC)c1-2 [Compound 8],1.1,7.8 ± 1,9.6 ± 1.3,9.7 ± 1.5,≤ 10,IC50 (LoVo/DX; [3]): 8.5 ± 1.1 nM
CNc1ccc2c(cc1=O)[C@@H](NCCO)CCc1cc(OC)c(OC)c(OC)c1-2 [Compound 9],23.6,5.6 ± 1.5,9.2 ± 2.2,10.1 ± 1.2,132 ± 37.5,–
CNc1ccc2c(cc1=O)[C@@H](NCCC#N)CCc1cc(OC)c(OC)c(OC)c1-2 [Compound 10],25.9,2 ± 0.6,9 ± 1,7.5 ± 0.7,51.5 ± 8.6,–
CNc1ccc2c(cc1=O)[C@@H](NCCCCl)CCc1cc(OC)c(OC)c(OC)c1-2 [Compound 11],10.0,1.3 ± 0.3,8.4 ± 2.2,7.6 ± 2.8,12.8 ± 3.3,–
CNc1ccc2c(cc1=O)[C@@H](NCCC(F)(F)F)CCc1cc(OC)c(OC)c(OC)c1-2 [Compound 12],3.6,2.3 ± 1.3,9.5 ± 0.2,9 ± 1.7,8.2 ± 0.6,–
CNc1ccc2c(cc1=O)[C@@H](NCc1ccccc1)CCc1cc(OC)c(OC)c(OC)c1-2 [Compound 13],7.0,0.9 ± 0.4,4.6 ± 1.8,7.3 ± 4.4,6 ± 0.8,–
"CNc1ccc2c(cc1=O)[C@@H](NCc1ccccc1Cl)CCc1cc(OC)c(OC)c(OC)c1-2 [Compound 14, N-(2-chlorobenzyl)-10-methylaminocolchicine]",–,0.1 ± 0.02,1.1 ± 0.7,0.7 ± 0.4,1.6 ± 1,"IC50 [1]: 0.1 to 1.6 nM; Selectivity index (SI), MCF-7 (MCF-7; SI = IC50 BALB/3T3 / IC50 MCF-7): 6.1; Selectivity index (SI), A549 (A549; SI = IC50 BALB/3T3 / IC50 A549): 4.1; Selectivity index (SI), LoVo/DX (LoVo/DX; SI = IC50 BALB/3T3 / IC50 LoVo/DX): 2.8; Potency relative to unmodified colchicine 1, LoVo/DX (LoVo/DX; times more potent than 1 towards LoVo/DX): approx. 440 times"
CNc1ccc2c(cc1=O)[C@@H](NCc1ccc(O)cc1)CCc1cc(OC)c(OC)c(OC)c1-2 [Compound 15],13.9,5.2 ± 0.5,8.9 ± 1.4,8.5 ± 0.9,72.2 ± 12.5,–
CNc1ccc2c(cc1=O)[C@@H](NCc1ccncc1)CCc1cc(OC)c(OC)c(OC)c1-2 [Compound 16],9.3,5.2 ± 1.9,8.9 ± 1.7,9.6 ± 1.8,48.1 ± 14.5,–
CNc1ccc2c(cc1=O)[C@@H](NCc1cccs1)CCc1cc(OC)c(OC)c(OC)c1-2 [Compound 17],8.9,0.9 ± 0.3,9.4 ± 0.5,9.3 ± 0.6,≤ 10,"Selectivity index (SI), LoVo (LoVo; SI = IC50 BALB/3T3 / IC50 LoVo): > 3; IC50 (LoVo/DX; [3]): 7.9 ± 1 nM"
